Measured values from patent US8603493B2, “Carbosilane dendrimers, preparation method thereof and use of same” (Dendrico, S.L., priority 2005, dated 2013).

What was measured:
[1] = test system: PBMC; test: Staining with Trypan Blue of PBMC treated with dendriplexes or dendrimers; conditions: 72 hours, (+/−)=2/1, IM8 3.93 μM, IM16 1.99 μM, ClNH4 3.98 μM, Phe 1.96 μM, NN 3.94 μM, SF 0.68 μM, G4 100 μM, PPT 0.88 μM (0.34 μM with SF, 1 μM with G4), n = 100 cells per count
[2] = test system: PBMC; test: Flow cytometry test (size and complexity; live cells vs apoptosis-necrosis); assay type: cell-based, human; conditions: 72 hours, same concentrations as Trypan Blue test
Experimental: The evaluation time on this occasion was 72 hours. The toxicity was evaluated on PBMC, produced in the manner described in Example 38. […] The ODN used was PPT, in the following way: • [ODN PPT] in the complex with the CBS: 2.57 (0.88 μM) • [ODN PPT] in the complex with SF: 0.34 μM • [ODN PPT] in the complex with G4: 1 μM […] The cells were either incubated with said complexes, a mixture of equal volume which contained ODN without CBS, a mixture which contained dendrimer alone, or with a mixture which contained only RPMI+complete medium which was used as negative control. The cells and/or the supernatant were then collected to be analysed by flow cytometry, confocal microscopy or cell DNA extraction. The percentages of cells with size and complexity corresponding to cells in apoptosis-necrosis were compared with the live cells. For this, the size (FW) and the complexity (SD) was evaluated by flow cytometry. To do this, a region was drawn around the cells with FW and SD corresponding to cells in apoptosis-necrosis and another around the cells with FW and SD corresponding to live cells. The percentages of cells present in each slide were compared. The graphics produced are shown in FIG. 15, wherein the X-axis represents the size (FW) and the Y-axis the complexity (SD). […] The cloud of dark cells corresponds to cells in apoptosis necrosis. The live cells are represented in grey.

[3] = test system: erythrocytes; test: Haemolysis test (haemoglobin release after 1 hour); assay type: cell-based; conditions: positive control, 0.2% Triton X-100
Experimental: A visual examination was carried out to detect the presence/absence of hemagglutination and quantification of haemoglobin release (haemolysis test) by spectrophotometry. ClNH4 was excluded from the dendrimers of previous Example 38, as the result had been more toxic for lymphocytes, and the results were compared with those produced for a PAMAN type generation 4 dendrimer.
The erythrocytes were obtained after being separated from the PBMC using the same Ficoll gradient cited in the previous Example. They were diluted in PBS to be able to view them individually. The cells were resuspended in 500 μl of PBS and were seeded in a 24-well plate (300,000/well). As positive control, cells treated with 0.2% Triton X-100 were used. Negative control: PBS (blank). The erythrocytes were incubated with different dendrimer concentrations. The presence of hemagglutination, number of cells and release of haemoglobin by hour were evaluated by collecting 100 μl of supernatant and measuring absorbencies by spectrophotometry using a plate reader at a wavelength of 550 nm and 690 nm as reference.
100% haemolysis in the control of Triton X-100 (the cells treated with Triton were all dead and broken). […] Each well is expressed as the percentage with respect to the O.D. (optical density) of Triton X-100, which is considered 100%; in addition to that percentage 7% of the control is subtracted. […]

[4] = test system: PBMC; test: Lymphoproliferative test (tritiated thymidine); assay type: cell-based, human; conditions: positive control, 1 μg/mL, 5 days, tested 12 times
Experimental: To evaluate the antigenic capacity of CBS dendrimers, a lymphoproliferative test was performed. The experiment was prepared in triplicate in a 96-well flat bottomed plate (100,000 cells per well in 200 μl of complete human AB medium with antibiotics, glutamine and 10% AB serum). […] After 5 days of incubation at 37° C. with 5% atmosphere of CO2 100 μl of supernatant was removed, then adding 100 μL of a medium with an isotopic intercalating agent of DNA, tritiated thymidine (prepared with 10% AB medium and Thymidine 1/100). The plate was then filtered using a Harvester passing its content through a filter, which was left to dry overnight (approx. 16 hours). After this period, a sheet of Methylex® containing scintillation medium was heat-melted, and it was read in a gamma camera to evaluate the number of counts (greater the counts, more proliferation). The results, which are shown below in Table 8, are expressed as tritiated thymidine counts per minute (cpm). Each result of each concentration was performed in triplicate, the value which appears in the table being the average of the 3. The PHA and the control were tested 12 times.

[5] = test system: ODN; test: Complex formation between CBS and ODN (agarose gel electrophoresis); assay type: binding; conditions: 3% agarose gel, RPMI, excess positive charge (+/−) 2/1 and higher
Excerpt: The oligonucleotidic sequences used were antisense sequences (complementary) directed against HIV RNA. The length varied from 15 to 28 bases, being of phosphorothioate nature. The specific ODN used and their sequences are shown below in Table 1.
Several of the ODN were used fluorescent at the 5′ end. This is indicated by adding the letter F to its notation. Thus, “GF” makes reference to the fluorescent anti-gag ODN at end 5′, whilst “RF” makes reference to the anti-Rev ODN fluorescent at end 5′.
Different agarose concentrations were used to show the migration of the ODN and the dendriplexes, bearing in mind the small size of the ODN used. Finally, a 3% agarose concentration in TAE 1× was chosen as the best. The migration of non-fluorescent ODNs was compared with fluorescent ones, both migrating at the same height but the latter increasing the signal perceived considerably. Using them, it thus avoided the isotopic labelling of the ODN. A double well was manufactured to prepare these gels, to permit load volumes of 60 μl, of which 50 μl was mixture volume of the samples in RPMI and 10 μl load buffer with glycerol. As size marker, a ladder of 100 base pairs was used (Gibco BRL®).
For the complex formations in all the tests performed, both on gels and on cells the ratio between the number of positive and negative charges in said complex was taken. As published by different authors in studies with PAMAM dendrimers, it is necessary that the complex formed has an excess positive charge to facilitate its binding to the cell membrane glycoproteins, negatively charged, thus starting the endocytosis process. Likewise, an excess of positive charge is added to ensure the formation of the dendrimer-DNA complex. Therefore, the complexes between the CBS dendrimers and the different nucleic acids were formed in excess number of positive charges (provided by the CBS) compared with negative charges (provided by the ODN). Nevertheless, different charge ratios were tested, making the calculations based in the number of dendrimer charges (fixed) and the number of negative charges of the ODN (also fixed). The 2/1 ratio of positive/negative charges was fixed as sufficient in all dendrimers to form the complexes with a total positive charge, although in some experiments a balance was provided of an equal number of negative charges as positive charges or excess negative charges.
In all the tests, a complex formation volume of 60 μl was used, using phenol red without RPMI serum as support medium.
Tests of complex formation were used with the dendrimers of the invention IM8, ClNH4, NN, Phe and IM16.
The synthesis process of the CBS used in this work begins from an initial nucleus of common structure, which is ended functionalizing in the periphery by the use of different functional groups, which are those which provide the positive charge to the dendrimer and determine the differences between themselves, the dendrimeric nucleus being of apolar nature. Since some of the bonds of the functional groups used to the dendrimeric nucleus could be unstable in aqueous solution, tests were performed to determine if the DNA retention in agarose gels and, therefore, the complex formation between the CBS and the DNA could be due to the total dendrimer structure being conserved or in contrast, the terminal functional groups came away from the moiety of the dendrimeric core which are responsible for the DNA retention. For this, gels were used in which complexes were formed between the ODNs and the integral CBS and those formed supposedly between the ODNs and the terminal functional groups with which the carbosilane skeleton had functionalized, in this case quaternized dimethylethanolamine. As has previously been commented, those positively charged molecules, which are bound to the dendrimer as terminal functional groups, are those which give the dendrimer its charge. As control, the mixtures of ODN-dendrimers, ODN-monomers and ODN alone were compared. […]

With “PPT: antisense phosphorothioate ODN against HIV mRNA, AATTTTCTTTTCGCCCCT (SEQ ID NO: 3), 18 bases [reference compound]” the “TB+ (%), cells stained with Trypan Blue” value [1] was 11.9%, the “Apoptosis-necrosis (%)” value [2] was 23% and the “Live cells (%)” value [2] was 71%.
Triton X-100 showed a haemolysis [3] of 100%.
In the case of “phytohemagglutinin [PHA, reference compound]”, the “Measurement of the scintillation counter (tritiated thymidine counts)” value [4] is reported as 10267 cpm.
With “quaternized dimethylethanolamine [monomers, reference compound]” the “complex formation with ODN (retention of DNA migration in gel)” value [5] was “not being capable”.
